Measured values from patent publication US20250114338A1, “TETRAHYDRO-PYRIDO[3,4-b]INDOLE ESTROGEN RECEPTOR MODULATORS AND USES THEREOF” (Genentech, Inc., priority 2014, published 2025).

Test system: ER-alpha MCF7
Assay: ER-alpha MCF7 HCS EC50; stated as measured by in vitro cell proliferation assays of Examples 902 and 903
Assay type: cell-based
Details: Homo sapiens, Table 2
Excerpt: The CellTiter-Glo® Luminescent Cell Viability Assay is a homogeneous method to determine the number of viable cells in culture based on quantitation of the ATP present, which signals the presence of metabolically active cells. The CellTiter-Glo® Assay is designed for use with multiwell plate formats, making it ideal for automated high-throughput screening (HTS), cell proliferation and cytotoxicity assays. The homogeneous assay procedure involves adding a single reagent (CellTiter-Glo® Reagent) directly to cells cultured in serum-supplemented medium. Cell washing, removal of medium or multiple pipetting steps are not required. The Cell Titer-Glo® Luminescent Cell Viability Assay, including reagents and protocol are commercially available (Promega Corp., Madison, WI, Technical Bulletin TB288).
The assay assesses the ability of compounds to enter cells and inhibit cell proliferation. The assay principle is based on the determination of the number of viable cells present by quantitating the ATP present in a homogenous assay where addition of the Cell Titer-Glo® reagent results in cell lysis and generation of a luminescent signal through the luciferase reaction. The luminescent signal is proportional to the amount of ATP present.
Cell Culture Medium: RPMI or DMEM high glucose, 10% Fetal Bovine Serum, 2 mM L-Glutamine, P/S. Incubate O/N (overnight) at 37° C., 5% CO2.
Day 2—Add Drug to Cells, Compound Dilution, DMSO Plates (serial 1:2 for 9 points). Add 20 μl of compound at 10 mM in the 2nd column of 96 well plate. […] Add 147 μl of Media into all wells. Transfer 3 μl of DMSO+ compound from each well in the DMSO Plate to each corresponding well on Media Plate using Rapidplate® (Caliper, a Perkin-Elmer Co.). For 2 drug combination studies, transfer one drug 1.5 μl of DMSO+ compound from each well in the DMSO Plate to each corresponding well on Media Plate using Rapidplate. Then, transfer another drug 1.5 μl to the medium plate.
Drug Addition to Cells, Cell Plate (1:10 dilution): Add 6 μl of media+ compound directly to cells (54 μl of media on the cells already). Incubate 3 days at 37° C., 5% CO2 in an incubator that will not be opened often.
Day 5—Develop Plates, Thaw Cell Titer Glo Buffer at room temperature: Remove Cell Plates from 37° C. and equilibrate to room temperature for about 30 minutes. Add Cell Titer-Glo® Buffer to Cell Titer-Glo® Substrate (bottle to bottle). Add 30 μl Cell Titer-Glo® Reagent (Promega cat. #G7572) to each well of cells. Place on plate shaker for about 30 minutes. Read luminescence on Analyst HT Plate Reader (half second per well).
Cell viability assays and combination assays: Cells were seeded at 1000-2000 cells/well in 384-well plates for 16 h. On day two, nine serial 1:2 compound dilutions were made in DMSO in a 96 well plate. The compounds were further diluted into growth media using a Rapidplate® robot (Zymark Corp., Hopkinton, MA). The diluted compounds were then added to quadruplicate wells in 384-well cell plates and incubated at 37° C. and 5% CO2. After 4 days, relative numbers of viable cells were measured by luminescence using Cell Titer-Glo® (Promega) according to the manufacturer's instructions and read on a Wallac Multilabel Reader® (PerkinElmer, Foster City). EC50 values were calculated using Prism® 4.0 software (GraphPad, San Diego).
5 ul of each individual compound concentration and each control compound was transferred to the cell plate. Fulvestrant was added to control wells at a final concentration of 100 nM). DMSO was added to negative control wells (0.2% v/v).

SMILES	EC50 (MCF7, MCF7 cells)	EC50 (MCF7 cells)
C[C@@H]1Cc2c([nH]c3ccccc23)[C@@H](c2c(F)cc(NC3CN(CCCF)C3)cc2F)N1CC(C)(C)F [Example 145, N-(3,5-difluoro-4-((1R,3R)-2-(2-fluoro-2-methylpropyl)-3-methyl-2,3,4,9-tetrahydro-1H-pyrido[3,4-b]indol-1-yl)phenyl)-1-(3-fluoropropyl)azetidin-3-amine]	0.096 nM	–
C[C@@H]1Cc2c([nH]c3ccccc23)[C@@H](c2c(F)cc(OCCN3CC(CF)C3)cc2F)N1CC1CC(F)(F)C1 [Example 146, (1R,3R)-2-[(3,3-difluorocyclobutyl)methyl]-1-[2,6-difluoro-4-[2-[3-(fluoromethyl)azetidin-1-yl]ethoxy]phenyl]-3-methyl-1,3,4,9-tetrahydropyrido[3,4-b]indole]	10 nM	–
C[C@@H]1Cc2c([nH]c3ccccc23)[C@@H](c2c(F)cc(OCCN3CC(CF)C3)cc2F)N1CC(C)(C)C [Example 147, (1R,3R)-1-[2,6-difluoro-4-[2-[3-(fluoromethyl)azetidin-1-yl]ethoxy]phenyl]-2-(2,2-dimethylpropyl)-3-methyl-1,3,4,9-tetrahydropyrido[3,4-b]indole]	0.698 nM	–
C[C@@H]1Cc2c([nH]c3ccccc23)[C@@H](c2c(F)cc(OCCN3CC(CF)C3)cc2F)N1C(=O)C1CCC1 [Example 148, cyclobutyl-[(1R,3R)-1-[2,6-difluoro-4-[2-[3-(fluoromethyl)azetidin-1-yl]ethoxy]phenyl]-3-methyl-1,3,4,9-tetrahydropyrido[3,4-b]indol-2-yl]methanone]	1.47 nM	–
C[C@@H]1Cc2c([nH]c3ccccc23)[C@@H](c2c(F)cc(OCCN3CC(CF)C3)cc2F)N1C(=O)C1CCCC1 [Example 149, cyclopentyl-[(1R,3R)-1-[2,6-difluoro-4-[2-[3-(fluoromethyl)azetidin-1-yl]ethoxy]phenyl]-3-methyl-1,3,4,9-tetrahydropyrido[3,4-b]indol-2-yl]methanone]	2.16 nM	–
C[C@H]1CCN(CCOc2cc(F)c([C@@H]3c4[nH]c5ccccc5c4C[C@@H](C)N3CC(C)(C)F)c(F)c2)C1 [Example 150, (1R,3R)-1-[2,6-difluoro-4-[2-[(3S)-3-methylpyrrolidin-1-yl]ethoxy]phenyl]-2-(2-fluoro-2-methyl-propyl)-3-methyl-1,3,4,9-tetrahydropyrido[3,4-b]indole]	0.483 nM	–
C[C@H](COc1cc(F)c([C@@H]2c3[nH]c4ccccc4c3C[C@@H](C)N2CC(C)(C)F)c(F)c1)N1CCCC1 [Example 151, (1R,3R)-1-[2,6-difluoro-4-[(2R)-2-pyrrolidin-1-ylpropoxy]phenyl]-2-(2-fluoro-2-methyl-propyl)-3-methyl-1,3,4,9-tetrahydropyrido[3,4-b]indole]	0.156 nM	–
CCCN1CC(COc2cc(F)c([C@@H]3c4[nH]c5ccccc5c4C[C@@H](C)N3CC(C)(C)F)c(F)c2)C1 [Example 152, (1R,3R)-1-[2,6-difluoro-4-[(1-propylazetidin-3-yl)methoxy]phenyl]-2-(2-fluoro-2-methyl-propyl)-3-methyl-1,3,4,9-tetrahydropyrido[3,4-b]indole]	0.362 nM	–
C[C@@H]1Cc2c([nH]c3ccccc23)[C@@H](c2c(F)cc(OCCN3CC(CF)C3)cc2F)N1CC1(F)CCC1 [Example 153, (1R,3R)-1-[2,6-difluoro-4-[2-[3-(fluoromethyl)azetidin-1-yl]ethoxy]phenyl]-2-[(1-fluorocyclobutyl)methyl]-3-methyl-1,3,4,9-tetrahydropyrido[3,4-b]indole]	0.221 nM	–
C[C@@H]1Cc2c([nH]c3ccccc23)[C@@H](c2c(F)cc(OCCN3CC(CF)C3)cc2F)N1C[C@](C)(F)CO [Example 154, (S)-3-((1R,3R)-1-(2,6-difluoro-4-(2-(3-(fluoromethyl)azetidin-1-yl)ethoxy)phenyl)-3-methyl-3,4-dihydro-1H-pyrido[3,4-b]indol-2(9H)-yl)-2-fluoro-2-methylpropan-1-ol]	0.0333 nM	–
C[C@@H]1Cc2c([nH]c3ccccc23)[C@@H](c2c(F)cc(OCCN3CC(CF)C3)cc2F)N1C[C@@](C)(F)CO [Example 155, (2R)-3-[(1R,3R)-1-[2,6-difluoro-4-[2-[3-(fluoromethyl)azetidin-1-yl]ethoxy]phenyl]-3-methyl-1,3,4,9-tetrahydropyrido[3,4-b]indol-2-yl]-2-fluoro-2-methyl-propan-1-ol]	0.0799 nM	–
C[C@@H]1Cc2c([nH]c3ccccc23)[C@@H](c2ccc(OCCN3CC(CF)C3)cc2)N1CC(C)(C)F [Example 156, (1R,3R)-1-[4-[2-[3-(fluoromethyl)azetidin-1-yl]ethoxy]phenyl]-2-(2-fluoro-2-methyl-propyl)-3-methyl-1,3,4,9-tetrahydropyrido[3,4-b]indole]	0.335 nM	–
C[C@@H]1Cc2c([nH]c3ccccc23)[C@@H](c2c(F)cc(OCCN3CC(CF)C3)cc2F)N1C(=O)CC1CC1 [Example 157, 2-cyclopropyl-1-[(1R,3R)-1-[2,6-difluoro-4-[2-[3-(fluoromethyl)azetidin-1-yl]ethoxy]phenyl]-3-methyl-1,3,4,9-tetrahydropyrido[3,4-b]indol-2-yl]ethanone]	5 nM	–
C[C@@H]1Cc2c([nH]c3ccccc23)[C@@H](c2c(F)cc(OCCN3CC(CF)C3)cc2F)N1C(=O)CC1CCC1 [Example 158, 2-cyclobutyl-1-[(1R,3R)-1-[2,6-difluoro-4-[2-[3-(fluoromethyl)azetidin-1-yl]ethoxy]phenyl]-3-methyl-1,3,4,9-tetrahydropyrido[3,4-b]indol-2-yl]ethanone]	10 nM	–
C[C@@H]1Cc2c([nH]c3ccccc23)[C@@H](c2c(F)cc(OCCN3CC(CF)C3)cc2F)N1C(=O)C(C)(F)F [Example 159, 1-[(1R,3R)-1-[2,6-difluoro-4-[2-[3-(fluoromethyl)azetidin-1-yl]ethoxy]phenyl]-3-methyl-1,3,4,9-tetrahydropyrido[3,4-b]indol-2-yl]-2,2-difluoro-propan-1-one]	–	0.147 nM
C[C@@H]1Cc2c([nH]c3ccccc23)[C@@H](c2c(F)cc(OCCN3CC(C)(CF)C3)cc2F)N1CC(C)(C)F [Example 160, (1R,3R)-1-[2,6-difluoro-4-[2-[3-(fluoromethyl)-3-methyl-azetidin-1-yl]ethoxy]phenyl]-2-(2-fluoro-2-methyl-propyl)-3-methyl-1,3,4,9-tetrahydropyrido[3,4-b]indole]	0.285 nM	–
C[C@@H]1Cc2c([nH]c3ccccc23)[C@@H](c2c(F)cc(OC3CN(C)C3)cc2F)N1CC(C)(C)F [Example 161, (1R,3R)-1-[2,6-difluoro-4-(1-methylazetidin-3-yl)oxy-phenyl]-2-(2-fluoro-2-methyl-propyl)-3-methyl-1,3,4,9-tetrahydropyrido[3,4-b]indole]	0.0413 nM	–
CCN1CC(Oc2cc(F)c([C@@H]3c4[nH]c5ccccc5c4C[C@@H](C)N3CC(C)(C)F)c(F)c2)C1 [Example 162, (1R,3R)-1-[4-(1-ethylazetidin-3-yl)oxy-2,6-difluoro-phenyl]-2-(2-fluoro-2-methyl-propyl)-3-methyl-1,3,4,9-tetrahydropyrido[3,4-b]indole]	0.0528 nM	–
CCCCCN1CC(Oc2cc(F)c([C@@H]3c4[nH]c5ccccc5c4C[C@@H](C)N3CC(C)(C)F)c(F)c2)C1 [Example 163, (1R,3R)-1-[2,6-difluoro-4-(1-pentylazetidin-3-yl)oxy-phenyl]-2-(2-fluoro-2-methyl-propyl)-3-methyl-1,3,4,9-tetrahydropyrido[3,4-b]indole]	0.457 nM	–
